Measurements reported in publication PMC4657239, “BluB/CobT2 fusion enzyme activity reveals mechanisms responsible for production of active form of vitamin B12 by Propionibacterium freudenreichii” (Microbial Cell Factories, 2015).

Biological target: T1, BluB/CobT2 (Propionibacterium freudenreichii, UniProt D7GJ95)
T1 construct: E. coli KRX, pFN18A; HaloTag removed by HaloTEV; N-terminal SDNA replaces initial Met
Test: LC-ESI-MS of alpha-ribazole phosphate formed
Assay type: biochemical
Details: 200 µM NaMN, 100 µM DMBI, 1 mM DTT, Tris-HCl pH 8.5, room temperature; CobT activity

T1 sequence (D7GJ95 entry or part of it): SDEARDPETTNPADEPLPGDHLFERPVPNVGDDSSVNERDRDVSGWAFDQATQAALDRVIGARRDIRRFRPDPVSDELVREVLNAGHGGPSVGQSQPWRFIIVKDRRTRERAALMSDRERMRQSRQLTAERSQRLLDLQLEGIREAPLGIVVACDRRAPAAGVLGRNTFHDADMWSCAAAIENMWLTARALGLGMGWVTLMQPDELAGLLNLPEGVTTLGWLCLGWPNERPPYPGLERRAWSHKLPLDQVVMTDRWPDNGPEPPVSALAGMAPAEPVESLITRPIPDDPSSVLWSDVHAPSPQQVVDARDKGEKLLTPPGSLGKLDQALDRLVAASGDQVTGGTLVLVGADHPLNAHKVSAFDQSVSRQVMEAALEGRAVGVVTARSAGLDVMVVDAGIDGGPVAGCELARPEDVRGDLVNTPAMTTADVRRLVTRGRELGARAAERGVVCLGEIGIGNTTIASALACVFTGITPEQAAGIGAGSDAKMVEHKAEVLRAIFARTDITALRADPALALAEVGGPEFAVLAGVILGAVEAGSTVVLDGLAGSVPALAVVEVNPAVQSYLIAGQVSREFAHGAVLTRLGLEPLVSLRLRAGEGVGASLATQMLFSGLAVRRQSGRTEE

O=C([O-])c1ccc[n+]([C@@H]2O[C@H](COP(=O)(O)O)[C@@H](O)[C@H]2O)c1 [NaMN]
LC-ESI-MS of alpha-ribazole phosphate formed: confirms that NaMN is the preferred substrate
